The results in this text go back to ChEMBL document CHEMBL5126510, “UCH-L3 structure and function: Insights about a promising drug target” (Eur J Med Chem, 2022).

By IC50 is commonly meant the concentration at which inhibition is half-maximal. As a reminder, the inhibition is the relative decrease from the control value, in per cent. A lower inhibition goes with a weak effect.

Experiment [1] has as its target T1, Ubiquitin carboxyl-terminal hydrolase isozyme L3 (Homo sapiens, UniProt P15374).
T1 sequence (P15374 whole entry): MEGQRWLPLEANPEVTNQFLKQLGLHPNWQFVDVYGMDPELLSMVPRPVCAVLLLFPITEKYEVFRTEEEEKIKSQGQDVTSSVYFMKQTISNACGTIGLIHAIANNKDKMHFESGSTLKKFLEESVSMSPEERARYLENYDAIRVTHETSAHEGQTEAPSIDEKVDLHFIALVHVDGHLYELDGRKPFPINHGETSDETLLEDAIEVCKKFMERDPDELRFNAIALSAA
The experiment can be described thus: Inhibition of recombinant human UCHL3 expressed in baculovirus infected Sf9 cells using ubiquitin-AMC as substrate preincubated for 30 mins followed by substrate addition by fluorescence spectrophotometric assay.

The target of experiment [2] is T1, Ubiquitin carboxyl-terminal hydrolase isozyme L3. Kind of experiment: Inhibition of UCHL3 (unknown origin) using Ub-AMC as substrate preincubated for 30 mins followed by substrate addition by fluorescence assay.
For experiment [3], the target named is T2, Ubiquitin carboxyl-terminal hydrolase isozyme L1 (Homo sapiens, UniProt P09936).
T2 sequence (P09936 whole entry): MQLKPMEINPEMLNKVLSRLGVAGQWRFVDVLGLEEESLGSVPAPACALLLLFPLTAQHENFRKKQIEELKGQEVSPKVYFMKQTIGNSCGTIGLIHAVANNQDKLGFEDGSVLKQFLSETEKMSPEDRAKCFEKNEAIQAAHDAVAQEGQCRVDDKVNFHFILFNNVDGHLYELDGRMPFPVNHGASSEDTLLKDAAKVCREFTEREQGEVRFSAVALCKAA
Kind of experiment: Inhibition of UCHL1 (unknown origin) using Ub-Rho as substrate preincubated for 30 mins followed by substrate addition.

Experiment [4] addresses T3, Ubiquitin carboxyl-terminal hydrolase isozyme L3 (Homo sapiens) (UniProt P15374).
T3 sequence (whole entry): T1 sequence (P15374 whole entry)
Kind of experiment: Inhibition of UCHL3 (unknown origin) using Ub-AMC as substrate at 0.1 uM preincubated for 60 mins followed by substrate addition by fluorescence assay relative to control.

In experiment [5] the target is T1, Ubiquitin carboxyl-terminal hydrolase isozyme L3. The experiment can be described thus: Inhibition of UCHL3 (unknown origin) incubated for 20 mins by fluorescence assay.
The target is the same in experiment [6]. Kind of experiment: Inhibition of UCHL3 (unknown origin) using ubiquitin-AMC as substrate by fluorescence assay.
For experiment [7], the target named is T2, Ubiquitin carboxyl-terminal hydrolase isozyme L1. Kind of experiment: Inhibition of UCHL1 (unknown origin) using Ub-Rho-morpholine as substrate preincubated for 30 mins followed by substrate addition by fluorescence based assay.
The target in experiment [8] is T1, Ubiquitin carboxyl-terminal hydrolase isozyme L3. Kind of experiment: Inhibition of UCHL3 (unknown origin).
Experiment [9] shares this target. Kind of experiment: Inhibition of UCHL3 (unknown origin) assessed as reduction in RAD51 deubiquitination incubated for 4 hrs.

As to `CCCCc1ccc(-c2nnc(C)n2-c2ccc(C(C)C)cc2)cc1`, the IC50 in experiment [1] turned out to be 47 µM.

In experiment [2], `CCCCC[C@H](O)/C=C/[C@H]1C(=O)C=C[C@@H]1C/C=C\CCCC(=O)O` gave a 50% inhibitory concentration (IC50) of 10 µM.

Consider `C#CCCn1cc(-c2cccc3c2ccn3C(=O)C2CCCN2C#N)c(C(F)(F)F)n1` (stereo not given), for which the IC50 in experiment [3] came out at 6.4 µM.

As to `N#CN1CCCC1C(=O)n1ccc2c(-c3cn[nH]c3C(F)(F)F)cccc21` (stereo not given), the IC50 in experiment [3] came out at 0.67 µM.

Consider `O=C1C(Cc2ccc([N+](=O)[O-])cc2)CNCC1Cc1ccc([N+](=O)[O-])cc1` (stereo not given), for which, in experiment [4], the inhibition came out at 60%.

Consider `COC(=O)c1cc(-c2ccc(OC)c(OC)c2O)c(N)c(-c2ccc3c(n2)C(=O)C(N)=C(OC)C3=O)n1`, for which, in experiment [5], the 50% inhibitory concentration (IC50) was 5 µM.

Compound `O=C1c2ccccc2C(=O)c2oc(-c3ccc(F)cc3)nc21` showed an IC50 in experiment [6] of 2.16 µM.

Compound `N#CN1CCC(C(=O)Nc2ncc(N3CCOCC3)s2)C1` (stereo not given) displayed an IC50 in experiment [7] of 0.23 µM.

In the case of `CC(=O)O/N=C1/C(=O)N(Cc2cc(Cl)ccc2Cl)c2ccc(Cl)cc21`, half-maximal inhibition in experiment [8] (IC50) required 25 µM.

As for `CCCCCCCCCCCCCCCCCCOP(=O)([O-])OC1CC[N+](C)(C)CC1` [PERIFOSINE], the 50% inhibitory concentration (IC50) in experiment [9] was found to be 0.05 µM.
